In PubChem BioAssay (NCI):
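Five compound concentrations were applied to cells in 96-well plates for 48 hours; endpoints were derived by simple linear interpolation of the resulting dose-response curve. GI50 is the concentration that inhibits growth by half. TGI denotes the concentration required for complete inhibition of growth.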

Tests used:
Test in all cases: growth of human tumour cells (NCI), 48 h
[1] = test system: 786-0 renal
[2] = test system: A549 NSCLC
[3] = test system: ACHN renal
[4] = test system: BT-549 breast
[5] = test system: CAKI-1 renal
[6] = test system: CCRF-CEM leukemia
[7] = test system: COLO 205 colon
[8] = test system: DU-145 prostate
[9] = test system: EKVX NSCLC
[10] = test system: HCC-2998 colon
[11] = test system: HCT-116 colon
[12] = test system: HCT-15 colon
[13] = test system: HOP-62 NSCLC
[14] = test system: HOP-92 NSCLC
[15] = test system: HS 578T breast
[16] = test system: HT29 colon
[17] = test system: IGROV1 ovarian
[18] = test system: K-562 leukemia
[19] = test system: KM12 colon
[20] = test system: LOX IMVI melanoma
[21] = test system: M14 melanoma
[22] = test system: MALME-3M melanoma
[23] = test system: MCF7 breast
[24] = test system: MDA-MB-231 breast
[25] = test system: MDA-MB-435
[26] = test system: MOLT-4 leukemia
[27] = test system: NCI-H226 lung
[28] = test system: NCI-H23 lung
[29] = test system: NCI-H460 lung
[30] = test system: NCI-H522 lung
[31] = test system: NCI/ADR-RES ovarian
[32] = test system: OVCAR-3 ovarian
[33] = test system: OVCAR-4 ovarian
[34] = test system: OVCAR-5 ovarian
[35] = test system: OVCAR-8 ovarian
[36] = test system: PC-3 prostate
[37] = test system: RPMI-8226 leukemia
[38] = test system: RXF 393 renal
[39] = test system: SF-268 CNS
[40] = test system: SF-295 CNS
[41] = test system: SF-539 CNS
[42] = test system: SK-MEL-2 melanoma
[43] = test system: SK-MEL-28 melanoma
[44] = test system: SK-MEL-5 melanoma
[45] = test system: SK-OV-3 ovarian
[46] = test system: SN12C renal
[47] = test system: SNB-19 CNS
[48] = test system: SR leukemia
[49] = test system: SW-620 colon
[50] = test system: T-47D breast
[51] = test system: TK-10 renal
[52] = test system: U251 CNS
[53] = test system: UACC-257 melanoma
[54] = test system: UACC-62 melanoma
[55] = test system: UO-31 renal

In the case of `COc1cc2c(cc1C)NC(=O)/C2=C/c1c(C)nc2sc(C)cn12`, the GI50 [1] is reported as > 100 µM, the TGI [1] is reported as > 100 µM and the GI50 [2] is reported as 60.8 µM. For the same compound, the TGI [2] was > 100 µM, the GI50 [3] was > 100 µM and the TGI [3] was > 100 µM. The GI50 [4] was 40.4 µM, the TGI [4] was > 100 µM and the GI50 [5] was 52 µM. For the same compound, the TGI [5] was > 100 µM, the GI50 [6] was 53.4 µM and the TGI [6] was > 100 µM. The GI50 [7] was 73.6 µM, the TGI [7] was > 100 µM and the GI50 [8] was > 100 µM. The TGI [8] was > 100 µM, the GI50 [9] was 49.2 µM and the TGI [9] was > 100 µM. The GI50 [10] was 31.7 µM, the TGI [10] was > 100 µM and the GI50 [11] was 53.5 µM. For the same compound, the TGI [11] was > 100 µM, the GI50 [12] was > 100 µM and the TGI [12] was > 100 µM. The GI50 [13] was > 100 µM, the TGI [13] was > 100 µM and the GI50 [14] was 22.1 µM. The TGI [14] was > 100 µM, the GI50 [15] was 49.8 µM and the TGI [15] was > 100 µM. For the same compound, the GI50 [16] was > 100 µM, the TGI [16] was > 100 µM and the GI50 [17] was 26.8 µM. For the same compound, the TGI [17] was > 100 µM, the GI50 [18] was 35.3 µM and the TGI [18] was > 100 µM. For the same compound, the GI50 [19] was 40.7 µM, the TGI [19] was > 100 µM and the GI50 [20] was > 100 µM. The TGI [20] was > 100 µM, the GI50 [21] was 44.2 µM and the TGI [21] was > 100 µM. For the same compound, the GI50 [22] was 60.1 µM, the TGI [22] was > 100 µM and the GI50 [23] was 64.1 µM. For the same compound, the TGI [23] was > 100 µM, the GI50 [24] was 40.9 µM and the TGI [24] was > 100 µM. For the same compound, the GI50 [25] was 32.4 µM, the TGI [25] was > 100 µM and the GI50 [26] was 34.4 µM. The TGI [26] was > 100 µM, the GI50 [27] was 82.8 µM and the TGI [27] was > 100 µM. For the same compound, the GI50 [28] was 61.7 µM, the TGI [28] was > 100 µM and the GI50 [29] was 45.7 µM. For the same compound, the TGI [29] was > 100 µM, the GI50 [30] was 52.5 µM and the TGI [30] was > 100 µM. The GI50 [31] was 45.5 µM, the TGI [31] was > 100 µM and the GI50 [32] was 74.7 µM. For the same compound, the TGI [32] was > 100 µM, the GI50 [33] was > 100 µM and the TGI [33] was > 100 µM. For the same compound, the GI50 [34] was > 100 µM, the TGI [34] was > 100 µM and the GI50 [35] was > 100 µM. The TGI [35] was > 100 µM, the GI50 [36] was 34.3 µM and the TGI [36] was > 100 µM. For the same compound, the GI50 [37] was 31.3 µM, the TGI [37] was > 100 µM and the GI50 [38] was > 100 µM. For the same compound, the TGI [38] was > 100 µM, the GI50 [39] was 85.3 µM and the TGI [39] was > 100 µM. For the same compound, the GI50 [40] was 45.2 µM, the TGI [40] was > 100 µM and the GI50 [41] was > 100 µM. For the same compound, the TGI [41] was > 100 µM, the GI50 [42] was > 100 µM and the TGI [42] was > 100 µM. For the same compound, the GI50 [43] was > 100 µM, the TGI [43] was > 100 µM and the GI50 [44] was 24.4 µM. The TGI [44] was 64.7 µM, the GI50 [45] was > 100 µM and the TGI [45] was > 100 µM. For the same compound, the GI50 [46] was 74.5 µM, the TGI [46] was > 100 µM and the GI50 [47] was > 100 µM. The TGI [47] was > 100 µM, the GI50 [48] was 22.6 µM and the TGI [48] was > 100 µM. For the same compound, the GI50 [49] was 63 µM, the TGI [49] was > 100 µM and the GI50 [50] was 64.4 µM. The TGI [50] was > 100 µM, the GI50 [51] was 68 µM and the TGI [51] was > 100 µM. The GI50 [52] was > 100 µM, the TGI [52] was > 100 µM and the GI50 [53] was 62.3 µM. For the same compound, the TGI [53] was > 100 µM, the GI50 [54] was 38.9 µM and the TGI [54] was > 100 µM. The GI50 [55] was 86.6 µM and the TGI [55] was > 100 µM.
